Molecules are shown by their SMILES. Read-outs that look alike come from different tables or passages of the source. Where only a bound is given, the exact number is not on record here.

The conditions of data set [1]: blood samples of three driving under the influence of drugs cases; cited from earlier work.
Data set [2] deals with T1, OAT3 (Homo sapiens, UniProt Q8TCC7).
T1 construct: host or cells: HEK293 (transient overexpression)
T1 sequence (Q8TCC7 1-542): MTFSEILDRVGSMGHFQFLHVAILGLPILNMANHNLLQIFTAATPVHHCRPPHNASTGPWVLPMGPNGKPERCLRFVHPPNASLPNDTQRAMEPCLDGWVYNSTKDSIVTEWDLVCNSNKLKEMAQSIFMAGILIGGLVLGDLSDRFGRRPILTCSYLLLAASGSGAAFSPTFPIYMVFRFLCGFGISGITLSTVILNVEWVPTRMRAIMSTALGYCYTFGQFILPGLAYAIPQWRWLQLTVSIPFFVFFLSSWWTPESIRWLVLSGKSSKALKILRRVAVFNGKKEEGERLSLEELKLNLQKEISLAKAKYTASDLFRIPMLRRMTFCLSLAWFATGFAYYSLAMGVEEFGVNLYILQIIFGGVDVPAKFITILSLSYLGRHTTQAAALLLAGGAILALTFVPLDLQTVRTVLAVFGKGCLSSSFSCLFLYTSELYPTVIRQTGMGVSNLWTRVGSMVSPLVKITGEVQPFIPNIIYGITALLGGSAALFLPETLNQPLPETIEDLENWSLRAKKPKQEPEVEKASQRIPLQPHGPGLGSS
Description: Uptake of [3-H]estrone-3-sulfate in HEK293-OAT3 cells. It counts as in vitro ADME. On the procedure: The concentrations and probe substrates were selected as follows: 0.1 μM [3-H]MPP^+ (for OCT1 and OCT2), 0.1 μM [3-H]PAH (for OAT1), 0.1 μM [3-H]ES (for OAT3 and OATP1B1), and 0.1 μM [3-H]EG (for OATP1B3).
(§1) 1.1 (Systat Software, Inc.).

Data set [3] has as its target UGT1A4 (Homo sapiens, UniProt P22310). Description: Inhibition of UGT1A4-catalyzed trifluoperazine N-glucuronidation in human liver microsomes. On the procedure:
The inhibitory effect of APINACA and typical UGT inhibitors on UGT1A1, UGT1A3, UGT1A4, UGT1A6, UGT1A9, and UGT2B7 were evaluated following our previous method by LC–MS/MS after incubation of ultrapooled human liver microsomes with a cocktail of UGT substrates. […] The reactions were initiated by adding UDPGA, and the incubation continued for 60 min at 37 °C in a shaking water bath. The reactions were terminated by adding 50 μL of ice-cold acetonitrile containing internal standards (propofol glucuronide for chenodeoxycholic acid 24-acyl-β-glucuronide and mycophenolic acid glucuronide; and meloxicam for SN-38 glucuronide, trifluoperazine glucuronide, N-acetylserotonin β-D-glucuronide, and naloxone 3-β-D-glucuronide). The incubation mixtures were centrifuged at 13,000× g for 8 min at 4 °C. Next, 50 μL of each supernatant of A and B set was mixed, and aliquots (5 μL) were analyzed by LC–MS/MS. All assays were performed in triplicate, and the average values were used in calculations.
To measure the time-dependent inhibition, human liver microsomes were preincubated with the various concentrations of APINACA (final concentrations of 0.1–100 μM) and UDPGA for 30 min at 37 °C. Next, the reaction mixtures were incubated with UGT probe substrate cocktail sets for 60 min at 37 °C. The control reaction was performed by adding methanol instead of the test compounds.
as §1
A general note: Liver microsomes are vesicles of endoplasmic reticulum, rich in cytochrome P450 enzymes.

Data set [4] addresses CYP2C9 (Homo sapiens, UniProt P11712). Nature of the data set: Inhibition of CYP2C9-catalyzed diclofenac 4′-hydroxylase in ultrapooled human liver microsomes. It is filed as in vitro ADME. The settings on record: CYP2C9 diclofenac 4′-hydroxylase. On the procedure:
The inhibitory potentials (IC50 values) of APINACA and typical CYP inhibitors on CYP 1A2, 2A6, 2C8, 2C9, 2C19, 2D6, and 3A4 activities in pooled human liver microsomes were evaluated following our previous method using a cocktail of CYP substrates, followed by LC–MS/MS [43]. […]. After 3 min of preincubation at 37 °C, the reaction mixtures were incubated for 15 min at 37 °C with the addition of NADPH in a shaking water bath. The reaction was stopped by adding 100 μL of ice cold methanol containing internal standards (d9-1′-hydroxybufuralol for 1′-hydroxybufuralol, 4′-hydroxydiclofenac, 7-hydroxycoumarin, 1′-hydroxymidazolam, and 4′-hydroxymephenytoin; ^13C2, ^15N-acetaminophen for acetaminophen and N-desethylamodiaquine). […] Aliquots (5 μL) of the diluted supernatants were analyzed by LC–MS/MS.
Next, the reaction mixtures were incubated with a seven-CYP probe substrate cocktail or bupropion for 15 min at 37 °C.
The LC-MS/MS system was comprised of an Agilent 6495 triple quadrupole mass spectrometer coupled with an Agilent 1290 Infinity system (Agilent Technologies, CA, USA). The column and autosampler temperatures were 40 °C and 4 °C, respectively.
The data were processed using Mass Hunter software (Agilent Technologies).
(§2) 12.5 (Systat Software, Inc.; San Jose, CA, USA). […] 1.1 (Systat Software, Inc.).

Data set [5] deals with CYP3A4 (Homo sapiens, UniProt P08684). Nature of the data set: Time-dependent inhibition kinetics of CYP3A4 midazolam 1′-hydroxylation in human liver microsomes. It is filed as in vitro ADME. The procedure: The kinetic parameters for the time-dependent inhibition potency of APINACA against human liver microsomal CYP3A4 activity were evaluated. Ultrapooled human liver microsomes (1 mg/mL) were preincubated with various concentrations of APINACA (final concentrations of 1–40 μM) in 50 mM potassium phosphate buffer (pH 7.4) in the presence of NADPH. Aliquots (10 μL) of the preincubated mixtures were withdrawn 5, 10, 20, and 30 min after incubation was commenced and were added to other tubes containing 2 μM midazolam, 1 mM NADPH, 50 mM potassium phosphate buffer (pH 7.4), and 10 mM MgCl2 in 90-μL reaction mixtures. The second reactions were terminated after 10 min by adding 100 μL of ice cold methanol containing d9-1′-hydroxybufuralol. […] Aliquots (5 μL) of the diluted supernatants were analyzed by LC–MS/MS.
as §2

Chain of CYP2C9 (P11712 whole entry): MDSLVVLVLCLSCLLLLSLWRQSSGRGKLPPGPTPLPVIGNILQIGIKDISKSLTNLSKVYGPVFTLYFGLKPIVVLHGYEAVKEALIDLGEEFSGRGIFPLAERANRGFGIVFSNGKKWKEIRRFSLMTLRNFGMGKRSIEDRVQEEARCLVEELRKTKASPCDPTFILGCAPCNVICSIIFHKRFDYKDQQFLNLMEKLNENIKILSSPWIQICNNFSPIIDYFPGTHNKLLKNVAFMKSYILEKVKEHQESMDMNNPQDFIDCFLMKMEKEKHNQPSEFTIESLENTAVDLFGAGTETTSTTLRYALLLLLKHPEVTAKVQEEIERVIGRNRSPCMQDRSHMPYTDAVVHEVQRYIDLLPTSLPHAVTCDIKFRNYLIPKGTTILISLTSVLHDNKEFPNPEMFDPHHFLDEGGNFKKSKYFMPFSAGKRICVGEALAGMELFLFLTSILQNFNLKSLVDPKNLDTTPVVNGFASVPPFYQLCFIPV
Chain of UGT1A4 (P22310 29-534): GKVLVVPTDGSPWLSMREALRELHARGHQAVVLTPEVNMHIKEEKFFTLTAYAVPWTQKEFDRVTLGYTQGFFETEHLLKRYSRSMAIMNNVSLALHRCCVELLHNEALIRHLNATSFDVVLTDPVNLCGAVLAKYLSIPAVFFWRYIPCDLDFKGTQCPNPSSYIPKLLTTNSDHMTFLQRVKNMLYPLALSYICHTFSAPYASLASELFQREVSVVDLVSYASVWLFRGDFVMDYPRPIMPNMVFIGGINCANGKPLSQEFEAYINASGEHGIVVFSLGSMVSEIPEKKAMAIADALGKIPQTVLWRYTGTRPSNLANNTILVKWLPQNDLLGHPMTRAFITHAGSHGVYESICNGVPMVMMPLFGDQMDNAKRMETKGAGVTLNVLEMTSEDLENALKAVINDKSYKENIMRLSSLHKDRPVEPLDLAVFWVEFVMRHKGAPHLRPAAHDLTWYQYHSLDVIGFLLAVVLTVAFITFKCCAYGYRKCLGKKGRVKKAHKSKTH
Chain of CYP3A4 (P08684 2-503): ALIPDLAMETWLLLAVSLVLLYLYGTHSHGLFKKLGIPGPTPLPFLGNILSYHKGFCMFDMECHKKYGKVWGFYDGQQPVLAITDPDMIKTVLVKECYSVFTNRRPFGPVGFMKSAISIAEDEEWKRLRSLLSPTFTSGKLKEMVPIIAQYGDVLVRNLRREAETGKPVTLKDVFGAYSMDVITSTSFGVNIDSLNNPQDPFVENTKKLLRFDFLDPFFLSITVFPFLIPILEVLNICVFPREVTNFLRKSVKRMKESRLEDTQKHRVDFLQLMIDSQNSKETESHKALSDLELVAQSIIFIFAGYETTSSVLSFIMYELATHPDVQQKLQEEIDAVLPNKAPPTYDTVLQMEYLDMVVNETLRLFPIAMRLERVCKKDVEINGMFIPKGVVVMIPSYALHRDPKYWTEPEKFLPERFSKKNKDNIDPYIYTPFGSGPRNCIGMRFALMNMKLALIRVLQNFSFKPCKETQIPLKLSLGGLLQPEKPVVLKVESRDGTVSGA

The term IC50 denotes the concentration at which inhibition is half-maximal. Broadly, the kinact is the maximal first-order rate at which the target is inactivated. In the case of `CCCCCn1nc(C(=O)NC23CC4CC(CC(C4)C2)C3)c2ccccc21` [APINACA, N-(1-adamantyl)-1-pentyl-1H-indazole-3-carboxamide], the blood concentrations in data set [1] is 0.66 to 67.1 nM. Further, the 50% inhibitory concentration (IC50) in data set [2] was greater than 250 µM; in data set [3], greater than 100 µM; in data set [3] (read-out: IC50 UGT1A4 trifluoperazine N-glucuronidation, with 30-min preincubation, pooled human liver microsomes, 30-min preincubation with UDPGA (○)), greater than 100 µM; in data set [4] (IC50 (μM) No Preincubation, 10 μM diclofenac, no preincubation) it was greater than 100 µM; in data set [4] (IC50 (μM) With Preincubation, 30-min preincubation with NADPH), 85 µM. This molecule also yielded an IC50 at 15 min in data set [4] (human, microsomes, pH 7.4, IC50 (μM) With Preincubation, 30-min preincubation with NADPH) greater than 100 µM. For the same molecule, in data set [5] (human liver microsomes), the “inactivation efficiency (kinact/Ki) for time-dependent inhibition of CYP3A4” value worked out at 173 M⁻¹ s⁻¹. Also, the maximal inactivation rate constant (kinact) in data set [5] (pH 7.4, probe midazolam 2 μM (1′-hydroxylation), ultrapooled human liver microsomes, time-dependent inhibition, read-out: kinact for time-dependent inhibition of CYP3A4-catalyzed midazolam 1′-hydroxylase (converted)) was 0.000781 s⁻¹.
